Test results published in patent US8252737B2, “Antimicrobial peptides and methods of use” (priority 2004, dated 2012).
In brackets after ≈: the same amount, converted by molar mass.

What was measured:
human erythrocytes = assay: Hemolytic activity (MHC), Protocol B, 18 hours; settings: for MHC (μg/ml) hRBC: maximal peptide concentration with no hemolysis after 18 hours
Method in brief: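 Hemolysis of 1% human erythrocytes in phosphate-buffered saline by 2-fold diluted D-peptides, incubated 18 h at 37 °C; hemoglobin release read spectrophotometrically. Value is the maximal peptide concentration producing no hemolysis, relative to erythrocytes without peptide.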

S. typhimurium C610 abs = settings: C610 abs
[1] = test system: Pseudomonas aeruginosa strains
E. faecalis = test system: E. faecalis
Method in brief: (§1)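 Microtiter dilution in LB no-salt or Mueller-Hinton medium, with BHI for Pseudomonas aeruginosa clinical isolates (final inoculum 1×10^6 CFU/ml). Plates were incubated 24 hours at 37° C. MIC was the lowest peptide concentration inhibiting growth.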

C. albicans = test system: C. albicans
Method in brief: as §1

[2] = Circular dichroism spectroscopy of helical structure (benign buffer and 50% TFE); format: physicochemical
Method in brief: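 Peptide CD spectra at 25 °C, 190–250 nm, in benign buffer (50 mM KH2PO4/K2HPO4, 100 mM KCl, pH 7) and in the same buffer with 50% TFE. Samples were a 10-fold dilution of ~500 μM stock. Mean residue molar ellipticity at 222 nm gave relative α-helicity.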

CC[C@H](C)[C@H](NC(=O)[C@H](C)NC(=O)[C@H](CCCCN)NC(=O)[C@H](CC(C)C)NC(=O)[C@H](C)NC(=O)[C@@H](NC(=O)[C@H](Cc1c[nH]cn1)NC(=O)[C@H](CC(C)C)NC(=O)[C@@H](NC(=O)[C@@H](NC(=O)[C@H](CCCCN)NC(=O)[C@@H](C)NC(=O)[C@H](C)NC(=O)[C@H](CO)NC(=O)[C@H](CCCCN)NC(=O)[C@H](Cc1ccccc1)NC(=O)[C@@H](NC(=O)[C@H](CCCCN)NC(=O)[C@H](CC(C)C)NC(=O)[C@H](Cc1ccccc1)NC(=O)[C@H](CO)NC(=O)[C@H](CCCCN)NC(=O)[C@H](Cc1c[nH]c2ccccc12)NC(=O)[C@H](CCCCN)NC(C)=O)[C@@H](C)O)[C@@H](C)O)C(C)C)[C@@H](C)O)C(=O)N[C@@H](CO)C(=O)N[C@@H](CO)C(N)=O [NAD]
Hemolytic activity Fold (human erythrocytes): 4
Hemolytic activity MHC (human erythrocytes; maximal peptide concentration producing no hemolysis after 18 hours, 37° C.): 31.3 µg/mL
MHC (μg/ml) hRBC (human erythrocytes; Table 11): 31.3 µg/mL
MHC (μg/ml) hRBC (human erythrocytes; Table 12): 31.3 µg/mL
Hemolytic activity MHC (human erythrocytes; red cells of human, 18 h): 31.3 µg/mL
MIC (μg/ml) Pa H188 abs (P. aeruginosa H187 wt): 1.6 µg/mL (≈ 0.545 µM)
MIC (μg/ml) Pa H187 wt (P. aeruginosa H187 wt; H187 wt): 3.1 µg/mL (≈ 1.06 µM)
MIC (μg/ml) St C610 abs (S. typhimurium C610 abs): 3.1 µg/mL (≈ 1.06 µM)
Antimicrobial activity Fold ([1]; fold improvement in geometric mean MIC compared to V681): 1.3
MIC CP 204 ([1]; strain CP 204): 7.8 µg/mL (≈ 2.66 µM)
MIC GM ([1]; strains): 22.1 µg/mL (≈ 7.53 µM)
MIC M 2 ([1]; strains): 7.8 µg/mL (≈ 2.66 µM)
MIC PA 14 ([1]; strains): 31.3 µg/mL (≈ 10.7 µM)
MIC PAK ([1]; strains): 62.5 µg/mL (≈ 21.3 µM)
MIC PAO 1 ([1]; strains): 15.6 µg/mL (≈ 5.32 µM)
MIC WR 5 ([1]; strains): 62.5 µg/mL (≈ 21.3 µM)
MIC (μg/ml) S. aureus 623 methR (Staphylococcus aureus; methicillin-resistant clinical strain): 3.1 µg/mL (≈ 1.06 µM)
MIC (μg/ml) S. aureus 622 wt (Staphylococcus aureus; wild type strain): 1.6 µg/mL (≈ 0.545 µM)
MIC (μg/ml) E. faecalis C625 wt (E. faecalis): 12.5 µg/mL (≈ 4.26 µM)
MIC (μg/ml) C. albicans (C. albicans): 12.5 µg/mL (≈ 4.26 µM)
MIC (μg/ml) C. xerosis C875 wt (Corynebacterium xerosis): 1.6 µg/mL (≈ 0.545 µM)
[θ]222 Benign ([2]; 5° C., 100 mM KCl, 50 mM PO4 pH 7.4): −4000 deg · cm^2 · dmol^−1
% helix 50% TFE ([2]; 5° C., relative to D-V681 in 50% TFE): 89%
[θ]222 50% TFE ([2]; 5° C., benign buffer pH 7.4 containing 50% TFE): −25000 deg · cm^2 · dmol^−1
% helix Benign ([2]; 5° C., pH 7.4 benign, relative to D-V681 in 50% TFE): 14%
% helix 50% TFE ([2]; 25° C., relative to NAL in 50% TFE): 85%
[θ]222 Benign ([2]; 25° C., benign buffer (100 mM KCl, 50 mM PO4 pH 7.0)): −2,850 deg · cm^2 · dmol^−1
[θ]222 50% TFE ([2]; 25° C., benign buffer diluted 1:1 (v/v) with TFE): −24,650 deg · cm^2 · dmol^−1
% helix Benign ([2]; 25° C., benign buffer, relative to NAL in 50% TFE): 10%
